In patent publication US10597388B2, “Pyridazinone herbicides” (FMC CORPORATION, priority 2014, dated 2020):

Columns and labels:
Assay in all cases: Test C greenhouse herbicide test, pre- and postemergence
Format in all cases: in vivo
[1] = system: barnyardgrass (Echinochloa crus-galli)
How it was run: (§1)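 Each species was treated both before emergence, in a loam–sand soil mix, and after emergence, as 1- to 4-leaf seedlings in peat-based potting medium. Plants stayed in the greenhouse 13 to 15 d, then were scored from 0 (no effect) to 100 (complete control) relative to controls.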

[2] = system: blackgrass (Alopecurus myosuroides)
How it was run: as §1

[3] = system: corn (Zea mays)
How it was run: as §1

[4] = system: crabgrass, large (large crabgrass, Digitaria sanguinalis)
How it was run: as §1

[5] = system: foxtail, giant (giant foxtail, Setaria faberii)
How it was run: as §1

[6] = system: galium (catchweed bedstraw, Galium aparine)
How it was run: as §1

[7] = system: lambsquarters (Chenopodium album)
How it was run: as §1

[8] = system: morningglory (Ipomoea coccinea)
How it was run: as §1

[9] = system: oilseed rape (Brassica napus)
How it was run: as §1

[10] = system: pigweed (Amaranthus retroflexus)
How it was run: as §1

[11] = system: ragweed (common ragweed, Ambrosia elatior)
How it was run: as §1

[12] = system: ryegrass, Italian (Italian ryegrass, Lolium multiflorum)
How it was run: as §1

[13] = system: velvetleaf (Abutilon theophrasti)
How it was run: as §1

[14] = system: waterhemp (common waterhemp, Amaranthus rudis)
How it was run: as §1

[15] = system: wheat (winter wheat, Triticum aestivum)
How it was run: as §1

[16] = Postemergence, 8 g ai/ha, scale 0 to 100 (0 no effect, 100 complete control)
[17] = Postemergence, 16 g ai/ha, scale 0 to 100 (0 no effect, 100 complete control)
[18] = Postemergence, 31 g ai/ha, 0 to 100 scale (0 no effect, 100 complete control)
[19] = Preemergence, 8 g ai/ha, scale 0 to 100, 0 is no effect, 100 is complete control
[20] = Preemergence, 16 g ai/ha, scale 0 to 100, 0 is no effect, 100 is complete control
[21] = Preemergence, 31 g ai/ha, scale 0 to 100, 0 is no effect, 100 is complete control
[22] = Preemergence, 62 g ai/ha, scale 0 to 100, 0 is no effect, 100 is complete control
[23] = postemergence, 62 g ai/ha, scale 0 to 100, 0 no effect, 100 complete control

Cc1nn(C)c(=O)c(-c2c(C)sc3c(C)cc(Cl)cc23)c1O [Compound 35]
Plant response rating, Barnyardgrass [1, 16]: 10
Plant response rating, Barnyardgrass [1, 17]: 10
Barnyardgrass plant response rating [1, 18]: 20
Plant response rating, Barnyardgrass [1, 19]: 0
Plant response rating, Barnyardgrass [1, 20]: 5
Plant response rating, Barnyardgrass [1, 21]: 5
Plant response rating, Barnyardgrass [1, 22]: 25
Barnyardgrass plant response rating [1, 23]: 20
Plant response rating, Blackgrass [2, 16]: 0
Plant response rating, Blackgrass [2, 17]: 5
Blackgrass plant response rating [2, 18]: 15
Plant response rating, Blackgrass [2, 19]: 5
Plant response rating, Blackgrass [2, 20]: 40
Plant response rating, Blackgrass [2, 21]: 50
Plant response rating, Blackgrass [2, 22]: 55
Blackgrass plant response rating [2, 23]: 45
Plant response rating, Corn [3, 16]: 0
Plant response rating, Corn [3, 17]: 0
Corn plant response rating [3, 18]: 5
Plant response rating, Corn [3, 19]: 0
Plant response rating, Corn [3, 20]: 0
Plant response rating, Corn [3, 21]: 0
Plant response rating, Corn [3, 22]: 0
Corn plant response rating [3, 23]: 5
Plant response rating, Crabgrass, Large [4, 16]: 5
Plant response rating, Crabgrass, Large [4, 17]: 5
Crabgrass, Large plant response rating [4, 18]: 20
Plant response rating, Crabgrass, Large [4, 19]: 0
Plant response rating, Crabgrass, Large [4, 20]: 0
Plant response rating, Crabgrass, Large [4, 21]: 5
Plant response rating, Crabgrass, Large [4, 22]: 5
Crabgrass, Large plant response rating [4, 23]: 20
Plant response rating, Foxtail, Giant [5, 16]: 25
Plant response rating, Foxtail, Giant [5, 17]: 35
Foxtail, Giant plant response rating [5, 18]: 50
Plant response rating, Foxtail, Giant [5, 19]: 5
Plant response rating, Foxtail, Giant [5, 20]: 25
Plant response rating, Foxtail, Giant [5, 21]: 60
Plant response rating, Foxtail, Giant [5, 22]: 85
Foxtail, Giant plant response rating [5, 23]: 75
Plant response rating, Galium [6, 16]: 90
Plant response rating, Galium [6, 17]: 90
Galium plant response rating [6, 18]: 90
Plant response rating, Galium [6, 20]: 90
Plant response rating, Galium [6, 21]: 90
Plant response rating, Galium [6, 22]: 95
Galium plant response rating [6, 23]: 95
Plant response rating, Lambsquarters [7, 16]: 35
Plant response rating, Lambsquarters [7, 17]: 75
Lambsquarters plant response rating [7, 18]: 80
Plant response rating, Lambsquarters [7, 20]: 5
Plant response rating, Lambsquarters [7, 21]: 20
Plant response rating, Lambsquarters [7, 22]: 100
Lambsquarters plant response rating [7, 23]: 70
Plant response rating, Morningglory [8, 16]: 100
Plant response rating, Morningglory [8, 17]: 100
Morningglory plant response rating [8, 18]: 100
Plant response rating, Morningglory [8, 20]: 25
Plant response rating, Morningglory [8, 21]: 25
Plant response rating, Morningglory [8, 22]: 98
Morningglory plant response rating [8, 23]: 100
Plant response rating, Oilseed Rape [9, 16]: 0
Plant response rating, Oilseed Rape [9, 17]: 0
Plant response rating, Oilseed Rape [9, 20]: 5
Plant response rating, Oilseed Rape [9, 21]: 90
Plant response rating, Oilseed Rape [9, 22]: 90
Oilseed Rape plant response rating [9, 23]: 10
Plant response rating, Pigweed [10, 16]: 35
Plant response rating, Pigweed [10, 17]: 25
Pigweed plant response rating [10, 18]: 60
Plant response rating, Pigweed [10, 20]: 75
Plant response rating, Pigweed [10, 21]: 75
Plant response rating, Pigweed [10, 22]: 80
Pigweed plant response rating [10, 23]: 55
Plant response rating, Ragweed [11, 16]: 0
Plant response rating, Ragweed [11, 17]: 0
Ragweed plant response rating [11, 18]: 25
Plant response rating, Ragweed [11, 20]: 0
Plant response rating, Ragweed [11, 21]: 5
Plant response rating, Ragweed [11, 22]: 40
Ragweed plant response rating [11, 23]: 40
Plant response rating, Ryegrass, Italian [12, 16]: 10
Plant response rating, Ryegrass, Italian [12, 17]: 30
Ryegrass, Italian plant response rating [12, 18]: 35
Plant response rating, Ryegrass, Italian [12, 20]: 50
Plant response rating, Ryegrass, Italian [12, 21]: 65
Plant response rating, Ryegrass, Italian [12, 22]: 70
Ryegrass, Italian plant response rating [12, 23]: 55
Plant response rating, Velvetleaf [13, 16]: 60
Plant response rating, Velvetleaf [13, 17]: 75
Velvetleaf plant response rating [13, 18]: 100
Plant response rating, Velvetleaf [13, 20]: 0
Plant response rating, Velvetleaf [13, 21]: 40
Plant response rating, Velvetleaf [13, 22]: 85
Velvetleaf plant response rating [13, 23]: 100
Plant response rating, Waterhemp [14, 16]: 0
Plant response rating, Waterhemp [14, 17]: 30
Waterhemp plant response rating [14, 18]: 25
Plant response rating, Waterhemp [14, 20]: 40
Plant response rating, Waterhemp [14, 21]: 40
Plant response rating, Waterhemp [14, 22]: 50
Waterhemp plant response rating [14, 23]: 45
Plant response rating, Wheat [15, 16]: 0
Plant response rating, Wheat [15, 17]: 0
Wheat plant response rating [15, 18]: 0
Plant response rating, Wheat [15, 20]: 0
Plant response rating, Wheat [15, 21]: 0
Plant response rating, Wheat [15, 22]: 5
Wheat plant response rating [15, 23]: 5
